Measurements as given in US20220193013A1, “Pharmaceutical Composition for Treatment or Prevention of Multiple Inflammatory Disorders” (priority 2020, published 2022).
Read-outs that look alike come from different tables or passages of the source.

Tests used:
[1] = tested on: leptin-deficient (ob/ob) mice; assay: body weight study in leptin-deficient (ob/ob) mice, 56 days; format: in vivo, mouse
Protocol: Therefore, ob/ob mice are a predictive in vivo model for these indications. This example provides results of a study of DA plus another compound (CQL) on body weight in leptin-deficient (ob/ob) mice. Vehicle group (N=14) were treated with distilled water by gavage BID, and DA (N=14) at a dose of 50 mg/kg by gavage BID. The study period was for 56 days+2-3 days testing period afterward. Body weight change measured 3X per week, food intake was measure twice per week, metabolic biomarkers (blood glucose, blood insulin, blood HbA1c, HDL, LDL, triglyceride and bile acid) were measured at beginning and end of study. Cytokine analysis was measured at end on Day 56.

[2] = tested on: acute lung injury plus hyperthermia, CD-1 mice; format: in vivo; details: for tolerability: mouse, in vivo
Protocol: This example provides results of a second modified acute lung injury plus hyperthermia study to evaluate the effect of denatonium acetate. The same procedure was used as in Example 7. Starting three days before the induction of lung injury, groups of six CD-1 mice each were treated prophylactically with vehicle or 92.4 mg/kg denatonium acetate (DA) (administered by twice-daily (BID) oral gavage (PO)) or with 3 mg/kg DA (administered by once-daily (QD) intraperitoneal (IP) injection). On Day 0, lung injury was induced by intratracheal instillation with 50 μL of 1 mg/mL bacterial lipopolysaccharide (LPS), and hyperthermia was induced by placing the animals in a 39° C. incubator. On Day 1 (i.e., 24 hours after induction), animals were euthanized and bronchoalveolar lavage fluid (BALF) was collected. The BALF specimens were assessed for cytokine concentrations (using a multiplex bead-based assay), and protein levels, and neutrophil counts (by fluorescence-activated cell sorting (FACS)). Additionally, lungs were collected, fixed, stained with Masson's trichrome, and assessed histologically. Three days of repeat PO dosing with 92.4 mg/kg DA (BID) or IP dosing with 3 mg/kg DA (QD) was well-tolerated in female CD-1 mice. […] This inference is consistent with the observation that deaths were seen both with vehicle and test article dosing. No other adverse clinical observations were noted during 3 days of test article administration. […] IL-13, MIP-1β, MCSF, and MIG. […] Thus, BID PO treatment with 92.4 mg/kg DA or QD IP injection with 3 mg/kg DA provided significant attenuation of the accumulation of multiple cytokines in the lungs of this mouse model of acute lung injury, along with nominal activity in counteracting neutrophil infiltration and lung damage in these animals.

[3] = tested on: acute lung injury plus hyperthermia, CD-1 mice; assay: mouse acute lung injury plus hyperthermia model; format: in vivo
Protocol: This example provides results of a study to evaluate the effect of denatonium acetate in a mouse acute lung injury plus hyperthermia model. The procedure was three groups of CD-1 mice given (1) saline by gavage for oral administration BID, (2) DA administered oral at a dose of 92.4 mg/kg BID and (3) was DA iv at 3 mg/kg iv bolus QD. Lung lavage fluid was measured and cytokine analysis. Statistics was one-way ANOVA followed by Tukey's multiple comparison post hoc test for data with normal distribution; Kruskal-Wallis test followed by Dunn's multiple comparison post hoc test for data with skewed distribution; and the ROUT method for identifying outliers. Control or drug administered for 3 days, then LPS at 50 μL of 1 mg/ml delivered intratracheally with a Penn Century needle where a core temperature of 39 C at 24 hours post LPS and then sacrifice to measure lung lavage fluid protein concentration and serum cytokine levels.

[4] = tested on: leptin-deficient (ob/ob) mice; assay: body weight study of denatonium acetate in leptin-deficient (ob/ob) mice fed with high-fat diet, 28 days; format: in vivo, mouse; details: vs vehicle
Protocol: This example describes an in vivo study of denatonium acetate on body weight in leptin-deficient (ob/ob) mice. Adult leptin-deficient mice (homozygote, ob/ob mice) fed with high-fat diet. There was a vehicle control group (15 mice) that were treated with distilled water by gavage BID. The DA group (15 mice) were treated with a DA solution at a dose of 23.1 mg/kg BID. Body weights and body weight changes were determined at days 1, 3, 7, 10, 14, 21, 24 and 28. Food intake was determined on days 3, 7, 10, 14, 17, 21, […] and 28. On day 28 blood samples were taken for cytokine analysis, HbA1c, HDL, LDL, insulin, and bile acids. Statistics were done by two-way repeated measures ANOVA followed by Tukey's multiple comparison post hoc test.

[5] = DA 50 mg/kg BID, day 56, no significant difference
[6] = DA 50 mg/kg gavage BID, 56 days
[7] = DA 50 mg/kg gavage BID, compared to vehicle
[8] = IP 3 mg/kg QD, compared to vehicle
[9] = oral 92.4 mg/kg BID, compared to vehicle
[10] = 23.1 mg/kg BID, pre-dose to day 28, not statistically significant

SMILES: CC(=O)[O-].CC[N+](CC)(CC(=O)Nc1c(C)cccc1C)Cc1ccccc1 [DA, denatonium acetate]
- IL-1β level, decreased by, compared to the vehicle group [1, 5]: 19.1%
- IL-6 level, decreased by, compared to the vehicle group [1, 5]: 61.4%
- MCP-1 level, decreased by, compared to the vehicle group [1, 5]: 20.9%
- RANTES level, decreased by, compared to the vehicle group [1, 5]: 1.7%
- MIG (versus controls) ([1]; DA 50 mg/kg BID, day 56, p=0.026): significant decreases
- Eotaxin (versus controls) ([1]; DA 50 mg/kg BID, day 56, p=0.047): significant decreases
- serum HDL levels ([1]; DA 50 mg/kg gavage BID): no significant effects
- body weight [1, 6]: no significant effect
- daily food consumption [1, 6]: no significant effect
- serum HBA1c levels [1, 6]: no significant effect
- serum glucose levels [1, 6]: significantly decreased
- serum insulin levels [1, 6]: no significant effect
- serum LDL levels [1, 7]: significantly lowered
- serum bile acids levels [1, 7]: significantly increased
- serum triglyceride levels [1, 7]: significantly lowered
- BALF neutrophil counts (by FACS assay) ([2]; IP 3 mg/kg QD): nominal decreases
- BALF protein concentrations ([2]; IP 3 mg/kg QD): nominal (but nonsignificant) changes
- severity of lung pathology (by histological scoring) ([2]; IP 3 mg/kg QD): nominal decreases in the severity
- BALF concentration of G-CSF [2, 8]: significant decreases
- BALF concentration of IL2 [2, 8]: significant decreases
- BALF concentration of IL-3 [2, 8]: significant decreases
- BALF concentration of IL-4 [2, 8]: significant decreases
- BALF concentration of IL-13 [2, 8]: significant decreases
- BALF concentration of IP-10 [2, 8]: significant decreases
- BALF concentration of M-CSF [2, 8]: significant decreases
- BALF concentration of MCP-1 [2, 8]: significant decreases
- BALF concentration of MIG [2, 8]: significant decreases
- BALF concentration of eotaxin [2, 8]: significant decreases
- tolerability ([2]; ip, 3 mg/kg): well-tolerated
- tolerability ([2]; po, 92.4 mg/kg): well-tolerated
- BALF neutrophil counts (by FACS assay) ([2]; oral 92.4 mg/kg BID): nominal decreases
- BALF protein concentrations ([2]; oral 92.4 mg/kg BID): nominal (but nonsignificant) changes
- severity of lung pathology (by histological scoring) ([2]; oral 92.4 mg/kg BID): nominal decreases in the severity
- BALF concentration of IL-2 [2, 9]: significant decreases
- BALF concentration of IL-3 [2, 9]: significant decreases
- BALF concentration of IL-10 [2, 9]: significant decreases
- BALF concentration of IL-13 [2, 9]: significant decreases
- BALF concentration of MCSF [2, 9]: significant decreases
- BALF concentration of MIG [2, 9]: significant decreases
- BALF concentration of MIP-1β [2, 9]: significant decreases
- protein concentration in lung lavage fluid ([3]; iv 3 mg/kg bolus QD): drastic but not significantly reduced
- protein concentration in lung lavage fluid ([3]; oral 92.4 mg/kg BID): drastic but not significantly reduced
- average daily average individual food intake ([4]; 23.1 mg/kg BID gavage, 28 days): no difference
- GM-CSF in blood ([4]; 23.1 mg/kg BID gavage, day 28): significant decreases
- IFNγ in blood ([4]; 23.1 mg/kg BID gavage, day 28): significant decreases
- IL-5 in blood ([4]; 23.1 mg/kg BID gavage, day 28): significant decreases
- IL-10 in blood ([4]; 23.1 mg/kg BID gavage, day 28): significant decreases
- IL-12 in blood ([4]; 23.1 mg/kg BID gavage, day 28): significant decreases
- KC/CXCL1 in blood ([4]; 23.1 mg/kg BID gavage, day 28): significant decreases
- M-CSF in blood ([4]; 23.1 mg/kg BID gavage, day 28): significant decreases
- blood HDL level ([4]; 23.1 mg/kg BID gavage, day 28): statistically significant decrease
- blood HbA1c levels ([4]; 23.1 mg/kg BID gavage, day 28): no statistically significant difference
- blood LDL levels ([4]; 23.1 mg/kg BID gavage, day 28): no statistically significant difference
- blood bile acid levels ([4]; 23.1 mg/kg BID gavage, day 28): no statistically significant difference
- blood insulin levels ([4]; 23.1 mg/kg BID gavage, day 28): no statistically significant difference
- blood total cholesterol levels (LDL plus HDL) ([4]; 23.1 mg/kg BID gavage, day 28): almost significant decrease
- fasting blood glucose level ([4]; 23.1 mg/kg BID gavage, day 28): no statistically significant difference
- body weight change ([4]; 23.1 mg/kg BID gavage, days 1-28, P=0.105): no significant main effect
- body weight change at day 28 ([4]; 23.1 mg/kg BID gavage): no statistically significant difference
- cumulative food consumption over 28 days ([4]; 23.1 mg/kg BID gavage): no statistically significant difference
- change in granulocyte number [4, 10]: trend of increasing change
- change in lymphocyte and white blood cell numbers and percentage [4, 10]: trend of increasing change
- change in monocyte number and percentage [4, 10]: trend of increasing change
